Measurements from the supplement of paper PMC10307832.

How the values were obtained:
Experiment in all cases: relative viability (nuclei count vs DMSO), 5 days (fraction); higher = more cells survive
[1] = compound: CC1=CC=C(C=C1)C(=O)CN2C3=C(CCCC3)SC2=N [Pifithrin_alpha] + NC(=O)Nc1cc(-c2cccc(F)c2)sc1C(=O)N[C@H]1CCCNC1 [AZD7762] (partner 0.2 µM)
Outline: (§1)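 Lung cancer cell lines, seeded in 1536-well plates, were treated the following day by pin tool with a single drug or with five library-drug doses (not always all listed) in √10 steps on top of a fixed anchor-drug dose. Cells were fixed and nuclei stained in one step after 5 days, and nuclei were counted. Relative viability is the nuclei count for treated wells divided by that for vehicle wells, reported as medians of duplicate plates.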

[2] = compound: Nc1nc(Nc2ccc3c(c2)CC[C@@H](N2CCCC2)CC3)nn1-c1cc2c(nn1)-c1ccccc1CCC2 [Bemcentinib] + CC(=O)c1c(C)c2cnc(Nc3ccc(N4CCNCC4)cn3)nc2n(C2CCCC2)c1=O [Palbociclib] (partner 0.5 µM)
Outline: as §1

[3] = compound: CC1=CC=C(C=C1)C(=O)CN2C3=C(CCCC3)SC2=N [Pifithrin_alpha] + CC1(C)CCC(c2ccc(Cl)cc2)=C(CN2CCN(c3ccc(C(=O)NS(=O)(=O)c4ccc(N[C@H](CCN5CCOCC5)CSc5ccccc5)c(S(=O)(=O)C(F)(F)F)c4)cc3)CC2)C1 [Navitoclax] (partner 0.5 µM)
Outline: as §1

Axitinib + Palbociclib = compound: CNC(=O)c1ccccc1Sc1ccc2c(/C=C/c3ccccn3)n[nH]c2c1 [Axitinib] + CC(=O)c1c(C)c2cnc(Nc3ccc(N4CCNCC4)cn3)nc2n(C2CCCC2)c1=O [Palbociclib] (partner 0.5 µM)
Outline: as §1

Cell Line | relative viability ([1]; first compound 1 µM) | relative viability ([1]; first compound 3.162 µM) | relative viability ([1]; first compound 10 µM) | relative viability ([1]; first compound 31.62 µM) | relative viability ([1]; first compound 100 µM) | relative viability ([2]; first compound 0.04 µM) | relative viability ([2]; first compound 0.1265 µM) | relative viability ([2]; first compound 0.4 µM) | relative viability ([2]; first compound 1.265 µM) | relative viability ([2]; first compound 4 µM) | relative viability ([3]; first compound 1 µM) | relative viability ([3]; first compound 3.162 µM) | relative viability ([3]; first compound 10 µM) | relative viability ([3]; first compound 31.62 µM) | relative viability ([3]; first compound 100 µM) | relative viability (Axitinib + Palbociclib; first compound 0.005 µM) | relative viability (Axitinib + Palbociclib; first compound 0.01581 µM) | relative viability (Axitinib + Palbociclib; first compound 0.05 µM) | relative viability (Axitinib + Palbociclib; first compound 0.1581 µM) | relative viability (Axitinib + Palbociclib; first compound 0.5 µM)
NCI-H1755 | 0.433 | 0.498 | 0.46 | 0.41 | 0.434 | 0.43 | 0.462 | 0.425 | 0.479 | 0.439 | 0.935 | 0.973 | 0.888 | 0.628 | 0.966 | 0.472 | 0.423 | 0.462 | 0.512 | 0.42
LU99A | 0.359 | 0.459 | 0.341 | – | 0.352 | 0.367 | 0.37 | 0.422 | 0.401 | 0.413 | 0.823 | 0.782 | 0.874 | – | 0.892 | 0.408 | 0.416 | 0.394 | 0.438 | 0.417
NCI-H1793 | 0.605 | 0.402 | 0.441 | 0.323 | 0.255 | 0.331 | 0.369 | 0.306 | 0.26 | 0.322 | 0.395 | 0.282 | 0.382 | 0.339 | 0.339 | 0.285 | 0.259 | 0.369 | 0.285 | 0.346
NCI-H460 | 0.545 | 0.501 | 0.401 | – | 0.375 | 0.241 | 0.147 | 0.221 | 0.301 | 0.199 | 1.41 | 0.989 | 0.989 | – | 0.933 | 0.154 | 0.211 | 0.143 | 0.145 | 0.319
HARA | 0.3 | 0.329 | 0.219 | 0.23 | 0.209 | 0.211 | 0.252 | 0.215 | 0.314 | 0.243 | 1.17 | 1.22 | 1.17 | 0.767 | 0.945 | 0.241 | 0.334 | 0.216 | 0.221 | 0.247
